Measured values published in PMC5872235 (2018).
Converted amounts (≈) assume the structure as drawn. “And” between values parts separate entries of the source, which are not always exact repeats. Identical values can stand only once. Like-named read-outs stand apart in the source and are kept apart here. Peptide text beside a SMILES is read from it.

Tests used:
[1] = test system: Staphylococcus aureus strains isolated from control group
[2] = test system: Superantigen negative Staphylococcus aureus (n = 48); experiment: microbe, parasite or virus in culture; settings: 18 h
[3] = test system: S. aureus in patients with atopic dermatitis; format: cell-based, Staphylococcus aureus
[4] = test system: Superantigen positive Staphylococcus aureus (n = 52)
[5] = test system: S. aureus in control group; format: cell-based, Staphylococcus aureus
[6] = test system: Staphylococcus aureus strains isolated from atopic dermatitis (AD) patients
[7] = test system: Superantigen positive Staphylococcus aureus (n = 52); experiment: microbe, parasite or virus in culture; settings: 18 h
[8] = test system: Staphylococcus aureus strains isolated from atopic dermatitis (AD) patients; experiment: microbe, parasite or virus in culture; settings: 18 h
[9] = test system: Staphylococcus aureus strains isolated from control group; experiment: microbe, parasite or virus in culture; settings: 18 h
[10] = test system: Superantigen negative Staphylococcus aureus (n = 48)
S. aureus isolates = settings: cited from earlier work
[11] = Superantigen positive (n = 52, 18 h)
[12] = Superantigen negative (n = 48, 18 h)

SMILES	MIC Range [1] [µg/mL]	MIC50 [2] [µg/mL]	MIC90 [2] [µg/mL]	MIC Range [4] [µg/mL]	MIC Range [6] [µg/mL]	MIC50 [7] [µg/mL]	MIC90 [7] [µg/mL]	MIC50 [8] [µg/mL]	MIC90 [8] [µg/mL]	MIC50 [9] [µg/mL]	MIC90 [9] [µg/mL]	MIC Range [10] [µg/mL]	MIC50 [4, 11] [µg/mL]	MIC90 [4, 11] [µg/mL]	MIC50 [10, 12] [µg/mL]	MIC90 [10, 12] [µg/mL]	Resistance (%), resistant strains [3] [%]	further results
CC(=O)NC[C@H]1CN(c2ccc(N3CCOCC3)c(F)c2)C(=O)O1 [Linezolid, linezolid]	1 to 4	1 (≈ 2.96 µM)	4 (≈ 11.9 µM)	0.5 to 4	0.25 to 32	1 (≈ 2.96 µM)	2 (≈ 5.93 µM)	1 (≈ 2.96 µM)	4 (≈ 11.9 µM)	2 (≈ 5.93 µM)	4 (≈ 11.9 µM)	0.25 to 4	–	–	–	–	–	Resistance of isolates, in words [3]: none of the isolates were resistant; Susceptibility of all strains, in words [5]: sensitive
CC[C@H](C)[C@H](NC(=O)CNC(=O)[C@H](CO)NC(=O)[C@H](CC(C)C)NC(=O)[C@@H](NC(=O)[C@H](CCCNC(=N)N)NC(=O)CNC(=O)[C@@H](NC(=O)[C@H](CC(C)C)NC(=O)[C@@H]1CCCN1C(=O)[C@H](CC(C)C)NC(=O)[C@@H](N)Cc1ccccc1)[C@@H](C)CC)C(C)C)C(=O)N[C@@H](CC(C)C)C(N)=O [Temporin A] (H-FLPLIGRVLSGIL-NH2)	–	–	–	–	–	–	–	–	–	–	–	–	8 (≈ 5.73 µM)	16 (≈ 11.5 µM)	8 (≈ 5.73 µM)	32 (≈ 22.9 µM)	–	MIC Range [4, 11]: 2 to 64 µg/mL; MIC Range [10, 12]: 4 to 32 µg/mL
CC[C@H](C)[C@H](NC(=O)[C@H](CCCCN)NC(=O)[C@H](CCCCN)NC(=O)[C@H](Cc1ccccc1)NC(=O)[C@H](CC(C)C)NC(=O)[C@H](CCCCN)NC(=O)[C@H](Cc1c[nH]c2ccccc12)NC(=O)[C@@H](N)CCCCN)C(=O)NCC(=O)N[C@@H](C)C(=O)N[C@H](C(=O)N[C@@H](CC(C)C)C(=O)N[C@@H](CCCCN)C(=O)N[C@H](C(=O)N[C@@H](CC(C)C)C(N)=O)C(C)C)C(C)C [CAMEL] (H-KWKLFKKIGAVLKVL-NH2)	–	–	–	–	–	–	–	–	–	–	–	–	4 (≈ 2.26 µM)	8 (≈ 4.52 µM)	4 (≈ 2.26 µM)	4 (≈ 2.26 µM)	–	MIC Range [4, 11]: 1 to 8 µg/mL; MIC Range [10, 12]: 2 to 128 µg/mL
CN(C)[C@@H]1C(O)=C(C(N)=O)C(=O)[C@@]2(O)C(O)=C3C(=O)c4c(O)cccc4[C@@](C)(O)[C@H]3C[C@@H]12 [Tetracycline, tetracycline]	0.125 to 32	0.5 (≈ 1.13 µM)	32 (≈ 72 µM)	0.0625 to 32	0.125 to 64	0.25 (≈ 0.563 µM)	32 (≈ 72 µM)	0.5 (≈ 1.13 µM)	32 (≈ 72 µM)	0.5 (≈ 1.13 µM)	32 (≈ 72 µM)	0.0625 to 32	–	–	–	–	15.5	–
CC[C@H](C)[C@H](NC(=O)[C@@H](NC(=O)[C@H](CO)NC(=O)[C@H](C)NC(=O)[C@@H](NC(=O)[C@H](CCCCN)NC(=O)[C@H](CCCCN)NC(=O)[C@@H](NC(=O)[C@@H](NC(=O)[C@H](CC(=O)O)NC(=O)[C@H](Cc1ccccc1)NC(=O)[C@H](CC(C)C)NC(=O)CN)C(C)C)[C@@H](C)CC)C(C)C)C(C)C)C(=O)NCC(=O)NCC(=O)N[C@@H](CC(C)C)C(N)=O [Citropin 1.1] (H-GLFDVIKKVASVIGGL-NH2)	–	–	–	–	–	–	–	–	–	–	–	–	16 (≈ 9.91 µM)	16 (≈ 9.91 µM)	16 (≈ 9.91 µM)	32 (≈ 19.8 µM)	–	MIC Range [4, 11]: 1 to 64 µg/mL; MIC Range [10, 12]: 1 to 128 µg/mL
CC[C@H]1OC(=O)[C@H](C)[C@@H](O[C@H]2C[C@@](C)(OC)[C@@H](O)[C@H](C)O2)[C@H](C)[C@@H](O[C@@H]2O[C@H](C)C[C@H](N(C)C)[C@H]2O)[C@](C)(O)C[C@@H](C)C(=O)[C@H](C)[C@@H](O)[C@]1(C)O [Erythromycin, erythromycin]	–	0.5 (≈ 0.681 µM)	256 (≈ 349 µM)	–	–	0.5 (≈ 0.681 µM)	> 512	0.5 (≈ 0.681 µM)	> 512	1 (≈ 1.36 µM)	> 512	–	–	–	–	–	–	rate of resistance (S. aureus isolates): 14% and 18%
CC[C@H](C)[C@H](NC(=O)[C@H](CCCCN)NC(=O)[C@H](CCC(=O)O)NC(=O)[C@H](CCCCN)NC(=O)[C@H](CO)NC(=O)[C@H](CCCCN)NC(=O)[C@H](CCCNC(=N)N)NC(=O)[C@H](Cc1ccccc1)NC(=O)[C@H](Cc1ccccc1)NC(=O)[C@H](CC(=O)O)NC(=O)CNC(=O)[C@H](CC(C)C)NC(=O)[C@@H](N)CC(C)C)C(=O)NCC(=O)N[C@@H](CCCCN)C(=O)N[C@@H](CCC(=O)O)C(=O)N[C@@H](Cc1ccccc1)C(=O)N[C@@H](CCCCN)C(=O)N[C@@H](CCCNC(=N)N)C(=O)N[C@H](C(=O)N[C@H](C(=O)N[C@@H](CCC(N)=O)C(=O)N[C@@H](CCCNC(=N)N)C(=O)N[C@H](C(=O)N[C@@H](CCCCN)C(=O)N[C@@H](CC(=O)O)C(=O)N[C@@H](Cc1ccccc1)C(=O)N[C@@H](CC(C)C)C(=O)N[C@@H](CCCNC(=N)N)C(=O)N[C@@H](CC(N)=O)C(=O)N[C@@H](CC(C)C)C(=O)N[C@H](C(=O)N1CCC[C@H]1C(=O)N[C@@H](CCCNC(=N)N)C(=O)N[C@H](C(=O)N[C@@H](CCC(=O)O)C(=O)N[C@@H](CO)C(=O)O)[C@@H](C)O)C(C)C)[C@@H](C)CC)C(C)C)[C@@H](C)CC [LL-37]	–	–	–	–	–	–	–	–	–	–	–	–	64 (≈ 14.2 µM)	256 (≈ 57 µM)	128 (≈ 28.5 µM)	> 512	–	–
CCC[C@@H]1C[C@@H](C(=O)N[C@@H]([C@H]2O[C@H](SC)[C@H](O)[C@@H](O)[C@H]2O)[C@@H](C)O)N(C)C1 [Lincomycin, lincomycin]	–	1 (≈ 2.46 µM)	64 (≈ 157 µM)	–	–	1 (≈ 2.46 µM)	16 (≈ 39.4 µM)	1 (≈ 2.46 µM)	64 (≈ 157 µM)	0.5 (≈ 1.23 µM)	> 512	–	–	–	–	–	37.5	–
C/C(=C\C(=O)OCCCCCCCCC(=O)O)C[C@@H]1OC[C@H](C[C@@H]2O[C@H]2[C@@H](C)[C@H](C)O)[C@@H](O)[C@H]1O [Mupirocin, mupirocin]	0.125 to 32	0.25 (≈ 0.499 µM)	512 (≈ 1020 µM)	–	–	0.5 (≈ 0.999 µM)	> 512	0.5 (≈ 0.999 µM)	> 512	0.25 (≈ 0.499 µM)	32 (≈ 63.9 µM)	–	–	–	–	–	17.5	Susceptibility of all strains, in words [5]: sensitive
CC(=O)O[C@H]1C[C@@]2(C)[C@@H](C[C@@H](O)[C@H]3[C@@]4(C)CC[C@@H](O)[C@@H](C)[C@@H]4CC[C@@]32C)/C1=C(\CCC=C(C)C)C(=O)O [Fusidic acid, fusidic acid]	0.125 to 16	0.125 (≈ 0.242 µM)	4 (≈ 7.74 µM)	0.0625 to 32	0.312 to 32	0.125 (≈ 0.242 µM)	8 (≈ 15.5 µM)	0.125 (≈ 0.242 µM)	8 (≈ 15.5 µM)	1 (≈ 1.94 µM)	16 (≈ 31 µM)	0.0312 to 32	–	–	–	–	15.5	S. aureus isolates resistant (S. aureus isolates): 50%
CC1(C)S[C@@H]2[C@H](NC(=O)[C@H](N)c3ccccc3)C(=O)N2[C@H]1C(=O)O [Ampicillin, ampicillin]	0.25 to 32	8 (≈ 22.9 µM)	16 (≈ 45.8 µM)	–	–	1 (≈ 2.86 µM)	8 (≈ 22.9 µM)	2 (≈ 5.72 µM)	16 (≈ 45.8 µM)	16 (≈ 45.8 µM)	32 (≈ 91.6 µM)	–	–	–	–	–	58.5	Resistance (%), resistant strains [5]: 4%
CN[C@H](CC(C)C)C(=O)N[C@H]1C(=O)N[C@@H](CC(N)=O)C(=O)N[C@H]2C(=O)N[C@H]3C(=O)N[C@H](C(=O)N[C@H](C(=O)O)c4cc(O)cc(O)c4-c4cc3ccc4O)[C@H](O)c3ccc(c(Cl)c3)Oc3cc2cc(c3O[C@@H]2O[C@H](CO)[C@@H](O)[C@H](O)[C@H]2O[C@H]2C[C@](C)(N)[C@H](O)[C@H](C)O2)Oc2ccc(cc2Cl)[C@H]1O [Vancomycin, vancomycin]	0.25 to 1	1 (≈ 0.69 µM)	2 (≈ 1.38 µM)	0.125 to 2	0.125 to 8	0.5 (≈ 0.345 µM)	1 (≈ 0.69 µM)	0.5 (≈ 0.345 µM)	2 (≈ 1.38 µM)	1 (≈ 0.69 µM)	1 (≈ 0.69 µM)	0.125 to 2	–	–	–	–	–	Resistance of isolates, in words [3]: none of the isolates were resistant; Susceptibility of all strains, in words [5]: sensitive
